Laboratory results taken from US20250270394A1, “CYCLODEXTRIN INCORPORATED SILICONE MATERIALS AND THEIR USE AS CARRIERS FOR ACTIVES” (WACKER CHEMIE AG, priority 2022, published 2025).
Read-outs that look alike come from different tables or passages of the source.

Key:
[1] = Homogeneity of cured silicone elastomer incorporating the cyclodextrin; format: physicochemical; conditions: hydrosilylation-cured PDMS elastomer, procedure analogous to CH95-70
From the text: 0.802 g (0.304 mmol) CH70, dimethylvinylsilyl-β-cyclodextrin, and 52.0 g of a silicon hydride terminated polydimethylsiloxane fluid with a viscosity of approx. 1000 mPa·s, are placed in a suitable plastic cup with a lid along with a magnetic stir bar. The cup is blanketed with nitrogen gas and then closed to maintain an inert atmosphere while stirring. The materials are stirred until the cyclodextrin is fully dissolved. To this solution, 22.9 g of a vinyl terminated polydimethylsiloxane fluid with a viscosity of approx. 100,000 mPa·s, are added and the contents of the plastic cup are hand-mixed with a stirring rod. 0.0757 g of a platinum catalyst solution, divinyl tetramethyl disiloxane platinum complex diluted in vinyl terminated polysiloxane (1% w/w Pt content), are added to the mixture and hand-mixed, followed by further mixing in a FlackTek, Inc. Speedmixer™, model DAC 1100.2 VAC, at 1250 rpm for 1 minute under vacuum (95 mbar pressure, to degas the mixture).
The composition is then placed into a “plate and frame” mold lined with a suitable release liner. The composition and mold are put into an oven preheated at 80° C. for 1 h to cure into a rubber slab produced are approximately 6 in X 6 in X 0.072 in. The cured elastomer specimen is clear and colorless. […]

[2] = Solubility of silylated cyclodextrins in silicone fluid BELSIL DM 5
Protocol: Such a homogneous mixture can also be formed by using a magnetic stirrer, overhead stirrer, Speedmixer™ or similar mixing techniques.
Above experiment was repeated with a native γ-CD CAVAMAX® W8, which was not modified with silylation.
Silylated β-cyclodextrin CH77 with low number of silyl groups (7.95 TMS and 3.23 VDMS groups on average) was evaluated to check the solubility in DM 5 at 10 wt. %.

[3] = Release of geraniol from cured elastomer, weight loss in oven at 60° C.; format: physicochemical
Protocol: A cured elastomer/CD/geraniol sample (VP141-2-1) containing 10:1 mole ratio of geraniol to CD was prepared by using the following procedure: Trimethylsilyl-β-cyclodextrin CH62 (1.41 g, 0.59 mmol) and geraniol (0.90 g, 5.9 mmol) were added to a plastic cup and mixed using a Speedmixer™ for 2 min at 2000 rpm (mixing was repeated 2-3 times). The mixture appeared almost homogeneous. SiH terminated linear silicone of approximate formula MHD220MH and approximate viscosity 1000 mPa·s (13.95 g), SiH terminated and pendant SiH containing silicone of approximate formula MHD95.5DH9.6MH and having an approximate viscosity of 165 mPa·s (0.71 g), vinyl terminated linear silicone of approximate viscosity 1000 mPa·s (22.31 g) and platinum catalyst solution (0.078 g) were added to the cup and mixed using Speedmixer™ for 2 min at 2000 rpm (x 3-4 times). The resulted clear and colorless mixture was left in the tightly closed cup for 24-36 h to cure at room temperature to get a cured elastomer sample.
Then, vinyl terminated linear silicone of approximate viscosity 1000 mPa·s(23.09 g) and platinum catalyst solution (0.075 g) were added to the cup and mixed using Speedmixer™ for 2 min at 2000 rpm (mixing was repeated 2-3 times). The resultant clear, colorless mixture was left in the tightly closed cup for 24-36 h to cure at room temperature to get a cured elastomer sample. […]

[4] = Thermogravimetric analysis (TGA) of evaporation of active, pure versus silyl-CD complex; format: physicochemical
From the text: Complex formation provides advantage for practical use of these guest molecules, many of which are pharmaceutical or cosmetic actives. For example, complexation slows down the evaporation of actives making the actives last longer. This is confirmed by Thermogravimetric analysis (TGA). Thermogravimetric analysis results for pure geraniol and its 1:1 complex with trimethylsilyl-β-cyclodextrin CH62 are shown in FIG. 4.
The complex with TMS-β-CD CH62 contains approximately 6 wt. % Geraniol. […] Thus, complexation with silyl-CD slows down loss of geraniol.
In FIG. 5 TGA thermograms show similar observations for complexation between a silyl-CD MG 15 and alpha-pinene 1:1 compared with pure alpha-pinene.
Pure pinene completely evaporates by 140° C., but it takes up to approximately 200° C. for the pinene to completely evaporate from the complex.

temperature at which evaporation (weight loss) starts [4] | temperature at which evaporation is complete [4] | Compound | appearance of cured elastomer sample [1] | further results
approximately 75 °C | approximately 225 °C | CC(C)=CCC/C(C)=C/CO [Geraniol, geraniol] |  | time to complete release of geraniol [3]: a few hours
< 30 °C | ≤ 140 °C | CC1=CCC2CC1C2(C)C (stereo not drawn) [pinene, alpha-pinene] |  | 

Further lines, the molecule ahead of its results:

Compound | temperature at which evaporation (weight loss) starts [4] | temperature at which evaporation is complete [4] | appearance of cured elastomer sample [1] | further results
OC[C@H]1O[C@@H]2O[C@H]3[C@H](O)[C@@H](O)[C@@H](O[C@H]4[C@H](O)[C@@H](O)[C@@H](O[C@H]5[C@H](O)[C@@H](O)[C@@H](O[C@H]6[C@H](O)[C@@H](O)[C@@H](O[C@H]7[C@H](O)[C@@H](O)[C@@H](O[C@H]8[C@H](O)[C@@H](O)[C@@H](O[C@H]1[C@H](O)[C@H]2O)O[C@@H]8CO)O[C@@H]7CO)O[C@@H]6CO)O[C@@H]5CO)O[C@@H]4CO)O[C@@H]3CO [CAVAMAX® W7, β-cyclodextrin] |  |  | heterogeneous, opaque, with large domain separations | 
OC[C@H]1O[C@@H]2O[C@H]3[C@H](O)[C@@H](O)[C@@H](O[C@H]4[C@H](O)[C@@H](O)[C@@H](O[C@H]5[C@H](O)[C@@H](O)[C@@H](O[C@H]6[C@H](O)[C@@H](O)[C@@H](O[C@H]7[C@H](O)[C@@H](O)[C@@H](O[C@H]8[C@H](O)[C@@H](O)[C@@H](O[C@H]9[C@H](O)[C@@H](O)[C@@H](O[C@H]1[C@H](O)[C@H]2O)O[C@@H]9CO)O[C@@H]8CO)O[C@@H]7CO)O[C@@H]6CO)O[C@@H]5CO)O[C@@H]4CO)O[C@@H]3CO [CAVAMAX® W8, γ-cyclodextrin] |  |  |  | solubility in DM 5 (appearance of mixture) [2]: heterogeneous and opaque, with gross phase separation
COC[C@H]1O[C@@H]2O[C@H]3[C@H](OC)[C@@H](OC)[C@@H](O[C@H]4[C@H](OC)[C@@H](OC)[C@@H](O[C@H]5[C@H](OC)[C@@H](OC)[C@@H](O[C@H]6[C@H](OC)[C@@H](OC)[C@@H](O[C@H]7[C@H](OC)[C@@H](OC)[C@@H](O[C@H]8[C@H](OC)[C@@H](OC)[C@@H](O[C@H]1[C@H](OC)[C@H]2OC)O[C@@H]8COC)O[C@@H]7COC)O[C@@H]6COC)O[C@@H]5COC)O[C@@H]4COC)O[C@@H]3COC [permethylated β-cyclodextrin] |  |  | heterogeneous, opaque, with large domain separations | solubility in DM 5 (appearance of mixture) ([2]; 10 wt. % mixture in BELSIL DM 5 (polydimethylsiloxane, 5 mPa·s), vortex mixer): heterogeneous and opaque
